Test results: PMC6625639 (Biochemical pharmacology, 2018)

Columns and labels:
SULT1A1 = SULT1A1 (Homo sapiens, UniProt P50225); type: biochemical
SULT2A1 = biological target: T1, SULT2A1 (Homo sapiens, UniProt Q06520); type: biochemical
T1 sequence (Q06520 1-285): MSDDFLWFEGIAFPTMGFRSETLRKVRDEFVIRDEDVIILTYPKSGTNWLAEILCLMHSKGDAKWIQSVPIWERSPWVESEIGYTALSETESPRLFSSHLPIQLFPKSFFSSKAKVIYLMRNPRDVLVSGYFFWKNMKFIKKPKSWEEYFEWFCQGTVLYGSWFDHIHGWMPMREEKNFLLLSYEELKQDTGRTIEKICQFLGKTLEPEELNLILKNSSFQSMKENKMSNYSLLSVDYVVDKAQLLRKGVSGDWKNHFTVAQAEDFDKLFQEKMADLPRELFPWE

Chain of SULT1A1 (P50225 whole entry): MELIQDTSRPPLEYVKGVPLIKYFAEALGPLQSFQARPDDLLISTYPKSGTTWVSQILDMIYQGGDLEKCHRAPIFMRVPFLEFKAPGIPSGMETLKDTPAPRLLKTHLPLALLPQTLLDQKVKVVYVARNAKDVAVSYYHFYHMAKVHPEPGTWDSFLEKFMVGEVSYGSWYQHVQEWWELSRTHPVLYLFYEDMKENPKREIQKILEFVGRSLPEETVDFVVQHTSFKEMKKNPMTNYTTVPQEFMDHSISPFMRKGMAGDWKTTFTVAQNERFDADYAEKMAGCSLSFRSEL

Ki (SULT1A1): 0.027 µM | Ki (SULT2A1): 14 µM
Compound: Cc1cccc(Nc2ccccc2C(=O)O)c1C [Mef, Mefenamic acid]
